{
  "source": "patent US11529358B2",
  "about": "“Treatment of conditions associated with myotonic dystrophy” (priority 2017, dated 2022)",
  "key": {"DM subject [1]": {"tested_on": "DM subject", "test": "Fatigue severity scale, self-reported", "format": "in vivo, human", "details": "additional DM subject; ON treatment: flumazenil 12-18 mg sublingual plus 12 mg topical daily, or armodafinil 250 mg QAM"}, "DM subject [2]": {"tested_on": "DM subject", "test": "Owl Lark questionnaire, self-reported", "format": "in vivo, human", "details": "additional DM subject; ON treatment: flumazenil 12-18 mg sublingual plus 12 mg topical daily, or armodafinil 250 mg QAM"}, "DM subject [3]": {"tested_on": "DM subject", "test": "Functional Outcomes of sleep, self-reported", "format": "in vivo, human", "details": "additional DM subject; ON treatment: flumazenil 12-18 mg sublingual plus 12 mg topical daily, or armodafinil 250 mg QAM"}, "DM subject [4]": {"tested_on": "DM subject", "test": "Beck Depression Inventory, self-reported", "format": "in vivo, human", "details": "additional DM subject; ON treatment: flumazenil 12-18 mg sublingual plus 12 mg topical daily, or armodafinil 250 mg QAM"}, "DM subject [5]": {"tested_on": "DM subject", "test": "Sleep inertia questionnaire, self-reported", "format": "in vivo, human", "details": "additional DM subject; ON treatment: flumazenil 12-18 mg sublingual plus 12 mg topical daily, or armodafinil 250 mg QAM"}, "DM subject [6]": {"tested_on": "DM subject", "test": "Epworth Sleepiness Scale, self-reported"}, "DM subject [7]": {"tested_on": "DM subject", "test": "Multidimensional Fatigue Inventory, self-reported", "format": "in vivo, human", "details": "additional DM subject; ON treatment: flumazenil 12-18 mg sublingual plus 12 mg topical daily, or armodafinil 250 mg QAM"}, "DM subject [8]": {"tested_on": "DM subject", "test": "Hypersomnia Severity Index, self-reported", "format": "in vivo, human", "details": "additional DM subject; ON treatment: flumazenil 12-18 mg sublingual plus 12 mg topical daily, or armodafinil 250 mg QAM"}, "[9]": {"tested_on": "MBNL2 knockout and DMSXL transgenic mouse models", "details": "MBNL2 knockout and DMSXL transgenic mice; Charizanis et al. 2012; cited from earlier work"}, "[10]": {"molecular_target": "GABRG2S-containing receptors in HEK293T cells (Homo sapiens, UniProt P14867+P18507)", "sequence (P18507 40-467 isoform P18507-1 limits assumed)": "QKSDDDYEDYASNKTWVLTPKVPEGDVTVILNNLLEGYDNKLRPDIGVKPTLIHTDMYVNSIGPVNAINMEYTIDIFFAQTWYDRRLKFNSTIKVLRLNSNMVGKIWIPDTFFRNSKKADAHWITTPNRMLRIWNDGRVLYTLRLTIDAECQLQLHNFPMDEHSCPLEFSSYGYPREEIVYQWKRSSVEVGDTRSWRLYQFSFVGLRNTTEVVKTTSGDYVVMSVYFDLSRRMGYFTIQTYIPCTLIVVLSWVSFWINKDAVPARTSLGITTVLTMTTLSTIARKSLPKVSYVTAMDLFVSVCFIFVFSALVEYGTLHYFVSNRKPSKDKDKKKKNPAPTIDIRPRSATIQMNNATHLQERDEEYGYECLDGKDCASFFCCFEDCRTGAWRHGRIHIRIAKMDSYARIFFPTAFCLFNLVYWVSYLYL", "sequence (P14867 28-456)": "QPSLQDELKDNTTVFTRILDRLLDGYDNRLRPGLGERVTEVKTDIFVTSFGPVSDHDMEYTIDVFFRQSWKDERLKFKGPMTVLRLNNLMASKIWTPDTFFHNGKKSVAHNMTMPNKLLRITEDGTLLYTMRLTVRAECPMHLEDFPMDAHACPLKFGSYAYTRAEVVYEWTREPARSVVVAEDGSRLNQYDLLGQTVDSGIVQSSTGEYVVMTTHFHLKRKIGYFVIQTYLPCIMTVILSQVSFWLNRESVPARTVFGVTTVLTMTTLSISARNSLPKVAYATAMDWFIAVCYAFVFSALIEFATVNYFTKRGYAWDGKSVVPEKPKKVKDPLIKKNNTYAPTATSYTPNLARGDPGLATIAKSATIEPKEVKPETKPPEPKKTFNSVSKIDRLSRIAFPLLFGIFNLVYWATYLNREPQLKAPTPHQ", "sequence (P47870 25-512 partner limits assumed)": "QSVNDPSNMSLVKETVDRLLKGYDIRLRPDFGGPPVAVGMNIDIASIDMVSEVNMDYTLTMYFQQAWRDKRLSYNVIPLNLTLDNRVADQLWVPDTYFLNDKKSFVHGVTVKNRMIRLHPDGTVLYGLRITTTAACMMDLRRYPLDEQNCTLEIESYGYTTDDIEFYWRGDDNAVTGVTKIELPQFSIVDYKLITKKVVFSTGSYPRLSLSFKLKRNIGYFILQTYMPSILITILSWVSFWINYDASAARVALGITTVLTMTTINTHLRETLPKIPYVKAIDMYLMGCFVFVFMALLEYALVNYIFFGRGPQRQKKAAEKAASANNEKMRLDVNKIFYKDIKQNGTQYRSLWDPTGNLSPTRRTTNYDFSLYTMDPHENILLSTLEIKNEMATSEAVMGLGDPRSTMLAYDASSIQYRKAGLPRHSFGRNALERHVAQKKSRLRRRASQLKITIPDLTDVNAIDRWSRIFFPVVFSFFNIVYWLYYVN", "test": "Patch clamp electrophysiology with DM subject CSF in HEK293T cells", "details": "CSF from DM subject 2, with GABA; clarithromycin added"}, "DM subject [11]": {"tested_on": "DM subject", "test": "Clinical treatment of hypersomnia and cognitive deficits in DM subjects", "format": "in vivo, human"}, "[12]": {"tested_on": "benzodiazepine binding site of GABAA receptors", "details": "previous work, Rye et al. 2012; cited from earlier work"}, "DM subject 1 [13]": {"tested_on": "DM subject 1", "test": "Ten-minute psychomotor vigilance task"}, "DM subject 1 [14]": {"tested_on": "DM subject 1", "test": "Stanford sleepiness scale", "details": "intravenous flumazenil, 2 different doses incl. 2.0 mg, average of 3 assessments over one hour"}, "gamma 2L deficient mice": {"tested_on": "gamma 2L deficient mice", "details": "Quinlan et al. 2000; cited from earlier work"}, "[15]": {"tested_on": "idiopathic hypersomnia (IH) subjects", "details": "previous work, Rye 2012; Trotti 2016; cited from earlier work"}, "[16]": {"details": "additional DM subject, ON treatment: flumazenil 12-18 mg sublingual plus 12 mg topical daily, or armodafinil 250 mg QAM"}},
  "note": "Entries after “also recorded” stand apart in the source; their conditions may differ.",
  "data": [
    {"smiles": "NC(=O)C[S@@+]([O-])C(c1ccccc1)c1ccccc1", "note": "[Armodafmil, armodafinil]", "values": [
      {"measurement": "Fatigue severity scale (7-63)", "setting": "DM subject [1]", "value": 47},
      {"measurement": "Owl Lark", "setting": "DM subject [2]", "value": 36},
      {"measurement": "Functional Outcomes of sleep (5-20)", "setting": "DM subject [3]", "value": 16.875},
      {"measurement": "Beck Depression Inventory (0-39)", "setting": "DM subject [4]", "value": 3},
      {"measurement": "Sleep inertia questionnaire", "setting": "DM subject [5]", "value": 14.683},
      {"measurement": "Epworth Sleepiness Scale", "setting": "DM subject [6]; [16]", "value": 8},
      {"measurement": "General Fatigue (5-20)", "setting": "DM subject [7]", "value": 15},
      {"measurement": "Mental Fatigue (5-20)", "setting": "DM subject [7]", "value": 11},
      {"measurement": "Physical Fatigue (5-20)", "setting": "DM subject [7]", "value": 6},
      {"measurement": "Reduced Activity (5-20)", "setting": "DM subject [7]", "value": 7},
      {"measurement": "Reduced Motivation (5-20)", "setting": "DM subject [7]", "value": 5},
      {"measurement": "Hypersomnia Severity Index (0-36)", "setting": "DM subject [8]", "value": 25}
    ]},
    {"smiles": "C1CCc2nnnn2CC1", "note": "[Pentylenetetrazole]", "values": [
      {"measurement": "spontaneous seizure and death in response to PTZ", "setting": "[9]", "value": "increased frequency of spontaneous seizure and death"}
    ]},
    {"smiles": "CC[C@H]1OC(=O)[C@H](C)[C@@H](O[C@H]2C[C@@](C)(OC)[C@@H](O)[C@H](C)O2)[C@H](C)[C@@H](O[C@@H]2O[C@H](C)C[C@H](N(C)C)[C@H]2O)[C@](C)(OC)C[C@@H](C)C(=O)[C@H](C)[C@@H](O)[C@]1(C)O", "note": "[clarithromycin]", "values": [
      {"measurement": "effect on endozepine-like activity of CSF", "setting": "[10]", "value": "reversed; also recorded: normalized"},
      {"measurement": "Oral clarithromycin treatment outcome", "setting": "DM subject [11]; DM subject 1", "value": "discontinued use -"},
      {"measurement": "Oral clarithromycin treatment outcome", "setting": "DM subject [11]; DM subject 2", "value": "clinical benefit; also recorded: efficacious"}
    ]},
    {"smiles": "CCOC(=O)c1ncn2c1CN(C)C(=O)c1cc(F)ccc1-2", "note": "[flumazenil]", "values": [
      {"measurement": "endozepine-like molecule binding", "setting": "[12]", "value": "inhibits endozepine-like molecule binding"},
      {"measurement": "time elapsed between visual stimulus and user input", "setting": "DM subject 1 [13]; 2.0 mg intravenously administered flumazenil, versus before treatment", "value": "dramatic decrease in time elapsed"},
      {"measurement": "lapses in attention (reaction times >500 ms)", "setting": "DM subject 1 [13]; intravenous flumazenil, 2 different doses incl. 2.0 mg", "value": "marked reduction in lapses in attention; also recorded: decreased"},
      {"measurement": "self reported sleepiness on the Stanford sleepiness scale", "setting": "DM subject 1 [14]", "value": "reduced sleepiness"},
      {"measurement": "action of midazolam in gamma 2L deficient mice", "setting": "gamma 2L deficient mice", "value": "reversed"},
      {"measurement": "clinical benefit in idiopathic hypersomnia", "setting": "[15]", "value": "clinical benefit"},
      {"measurement": "Epworth Sleepiness Scale", "setting": "DM subject [6]; DM subject 4, ON flumazenil 12-18 mg sublingual plus 12 mg topical daily, 6 continuous weeks", "value": 5},
      {"measurement": "Epworth Sleepiness Scale", "setting": "DM subject [6]; [16]", "value": 7}
    ]}
  ]
}
